Laboratory results: publication PMC3954793, “SHP-2 Binds to Caveolin-1 and Regulates Src Activity via Competitive Inhibition of CSK in Response to H2O2 in Astrocytes” (PLoS ONE, 2014)
“Also recorded” adds a separate entry of the source. Like-named read-outs stand apart in the source and are kept apart here. Blank lines part the entries; values can stand above or below the molecule they belong to. Square brackets hold non-standard residues; d marks the D form. Ends that are not written are not given here. pY = N[C@@H](Cc1ccc(OP(=O)(O)O)cc1)C(=O)O

Experiments:
[1] = system: caveolin-1 (Tyr 14 phosphorylation); experiment: Immunoblot of p-caveolin-1 in human astroglioma cells and HUVECs; type: cell-based; conditions: for suppression of H2O2-induced caveolin-1 phosphorylation: pretreated 30 min, then 5 mM H2O2 for 10 min, percentage of H2O2-treated values, three independent experiments
From the text: HUVECs were utilized as a positive control. Data are representative of at least three experiments. […] Data are representative of three independent experiments.

[2] = system: caveolin-1 (Tyr 14 phosphorylation); conditions: rat primary astrocytes; 1 mM H2O2, 10 min; immunoblot
[3] = system: caveolin-1 (Tyr 14 phosphorylation); conditions: bovine pulmonary artery endothelial cells and placenta artery endothelial cells; ref [28]–[30]; cited from earlier work
[4] = system: ERK phosphorylation; experiment: Immunoblot of p-ERK; type: cell-based, human; conditions: CRT-MG cells; 5 mM H2O2, 10 min
Procedure: (§1) Cells were plated and transfected with green fluorescence protein (GFP) siRNA (Samchully Pharm Co. Ltd., Seoul, Korea) as a control group and human CSK siRNA and human SHP-2 siRNA from Bioneer (Daejeon, Korea) using Lipofectamine RNAiMAX (Invitrogen, Carlsbad, CA, USA) according to the manufacturer’s instructions to achieve a final concentration of 300 nM.
(§2) Figure 7 SHP-2 and CSK reciprocally regulate H2O2-induced Src activation. […] Tubulin was evaluated as a loading control. Bottom panel, Densitometric quantification of p-Src Y419 levels (empty bars) and p-Src Y530 levels (filled bars), normalized to the level of total Src. Results are expressed as percentage of H2O2-treated values in control siRNA presented as mean ± SD. (*p<0.05 vs. H2O2-treated cells transfected with control siRNA; #p<0.05 between SHP-2 siRNA-transfected cells and CSK siRNA-transfected cells; n = 3). (B) Inhibition of SHP-2 by PTPi IV attenuated the H2O2-induced activation of the Src signaling pathway. CRT-MG cells were treated with 5 mM H2O2 or not for 10 min in the presence of 5 or 10 µM PTPi IV for 30 min, and lysed in cold-RIPA buffer. Antibodies against p-SHP-2, SHP-2, p-Src, Src, p-FAK, FAK, p-ERK, ERK, and tubulin were used for immunoblotting. Bottom panel, Densitometric quantification of p-Src Y419 levels (empty bars) and p-Src Y530 levels (filled bars), normalized to the level of total Src. […] (p, phospho).

[5] = system: caveolin-1/SHP-2 complex; conditions: CRT-MG cells; 5 mM H2O2, 10 min; PLA red dots; repeated 4 times
[6] = system: FAK phosphorylation; experiment: Immunoblot of p-FAK; type: cell-based, human; conditions: CRT-MG cells; 5 mM H2O2, 10 min
Procedure: as §2

[7] = system: caveolin-1/CSK complex; experiment: Co-immunoprecipitation of caveolin-1 and CSK; type: cell-based, human; conditions: CRT-MG cells; H2O2 10 min; IP anti-caveolin-1
Procedure: cDNA encoding full-length human caveolin-1 was obtained from Thermo Scientific (Waltham, MA, USA). The Y14A caveolin-1 mutant was generated using a QuickChange site-directed mutagenesis kit (Stratagene, Santa Clara, CA, USA) using PCR. pCMV-SPORT6-caveolin-1 cDNA (25 ng) was used as a template and added to dNTP mix, Pfu buffer, Pfu turbo DNA polymerase and 125 ng of each of the mutagenic primers: sense, 5′-[…]-3′ and antisense, 5′-[…]-3′. Samples were then incubated at 95°C for 1 min, then for 20 cycles of 95°C for 1 min, 65°C for 4 min, and 68°C for 12 min. The methylated parental DNA template in the PCR product was digested using the DpnI (10 U) restriction enzyme for 3 h at 37°C. […] After mutagenesis, 1 µg of caveolin-1 wild-type (WT) or Y14A mutant DNA was transfected into HEK 293T cells using VIVAMAGIC transfection reagent (VIVAGEN, Seongnam, Korea) containing 10% FBS according to the manufacturer’s instructions for 24 h before treatment with 5 mM H2O2 for 10 min; the cells were then analyzed by immunoblotting.
as §1, with “nM. […]” for “nM.”

[8] = molecular target: T1, recombinant GST-SHP-2 (Homo sapiens, UniProt Q06124); experiment: PepSPOTs assay, rGST-SHP-2; type: binding; conditions: 13-mer peptides of caveolin-1 (1–85) with phosphorylated Tyr 6, 14, 25, 42 on cellulose membrane; 1 µg rGST-SHP-2, overnight; repeated 3 times
T1 construct: purchased Abnova (Taipei, Taiwan)
T1 sequence (Q06124 1-593): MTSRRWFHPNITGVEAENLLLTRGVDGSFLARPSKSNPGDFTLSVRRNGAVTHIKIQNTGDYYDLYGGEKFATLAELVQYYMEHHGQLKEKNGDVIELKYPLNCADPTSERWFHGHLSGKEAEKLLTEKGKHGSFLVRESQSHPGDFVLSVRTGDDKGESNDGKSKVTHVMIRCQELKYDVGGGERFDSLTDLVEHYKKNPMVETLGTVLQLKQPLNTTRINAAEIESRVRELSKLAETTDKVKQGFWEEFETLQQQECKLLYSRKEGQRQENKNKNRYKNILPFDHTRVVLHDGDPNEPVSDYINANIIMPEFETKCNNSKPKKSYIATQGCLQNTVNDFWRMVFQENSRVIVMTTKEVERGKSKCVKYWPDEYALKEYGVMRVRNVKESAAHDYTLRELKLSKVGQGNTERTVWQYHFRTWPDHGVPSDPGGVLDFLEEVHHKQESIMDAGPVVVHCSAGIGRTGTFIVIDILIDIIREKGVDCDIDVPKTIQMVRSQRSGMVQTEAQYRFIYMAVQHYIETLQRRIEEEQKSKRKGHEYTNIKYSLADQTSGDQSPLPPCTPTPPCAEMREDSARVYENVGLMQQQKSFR
Procedure: (§3) Identification of binding sites for recombinant SHP-2 and CSK in the caveolin-1 protein was performed using PepSPOTs (JPT Peptide Technologies GmbH, Berlin, Germany). Synthetic peptide sequences of caveolin-1 (1–85 and 1–28) were used in this study. The peptide library contained either 13-mer peptides that overlapped by 5 residues or 13-mer peptides that overlapped by 8 residues. Each spot carried approximately 5 nmol of peptide covalently bound to the cellulose-betaalanine-membrane (N-terminus: acetyl). Two identical membranes were incubated overnight with either recombinant GST-SHP-2 (rGST-SHP-2) or GST-CSK (rGST-CSK) respectively, and immunoblotting was performed to detect rGST-SHP-2/caveolin-1 peptide and rGST-CSK/caveolin-1 peptide interactions.
(§4) Figure 4 Both SHP-2 and CSK bind specifically to phosphorylated caveolin-1 at Tyr 14. (A) Schematic diagram of caveolin-1. (B) A peptide array assay was performed to identify the binding site for recombinant SHP-2 and CSK in the caveolin-1 protein. Schematic diagram of the synthetic peptide sequences of caveolin-1 (1–85) spotted on the membrane used for study is shown in the left panel. The peptide numbering starts with 1 in the left corner and the phosphorylated tyrosine residues are indicated in bold. […]

[9] = system: recombinant GST-CSK; experiment: PepSPOTs assay, rGST-CSK; type: binding; conditions: 13-mer peptides of caveolin-1 (1–85) with phosphorylated Tyr 6, 14, 25, 42 on cellulose membrane; 1 µg rGST-CSK, overnight; repeated 3 times
Procedure: as §3, §4

Molecule: OO [H2O2, hydrogen peroxide]
level of Tyr-phosphorylated caveolin-1, dose dependence ([1]; CRT-MG cells, H2O2 0–5 mM, 10 min, normalized to tubulin, mean ± SD from three experiments): dose-dependent increase in the level of Tyr-phosphorylated caveolin-1 up to a concentration of 5 mM | phosphorylation of caveolin-1 at Tyr 14 ([1]; HUVECs (positive control), 1 mM H2O2, 10 min, immunoblot): induced the phosphorylation of caveolin-1 | phosphorylation of caveolin-1 at Tyr 14 [2]: induced the phosphorylation of caveolin-1; also recorded: strongly induced phosphorylation of caveolin-1 at Tyr 14 | phosphorylation of caveolin-1 at Tyr 14 [3]: induces the phosphorylation of caveolin-1 at Tyr 14 | phosphorylation of ERK 1/2, H2O2-induced [4]: leads to phosphorylation of ERK 1/2 and FAK | direct interaction between SHP-2 and caveolin-1 [5]: a direct interaction between SHP-2 and caveolin-1 (indicated by red dots) occurred | phosphorylation of FAK, H2O2-induced [6]: leads to phosphorylation of ERK 1/2 and FAK | complex formation between caveolin-1 and CSK [7]: complex formation occurred between caveolin-1 and CSK

Molecule: CC(=O)N[C@@H](CS)C(=O)O [NAC, N-acetyl-L-cysteine]
suppression of H2O2-induced caveolin-1 phosphorylation ([1]; CRT-MG cells): considerably suppressed H2O2-induced caveolin-1 phosphorylation in a dose-dependent manner; also recorded: modest compared to catalase

Molecule: catalase
suppression of H2O2-induced caveolin-1 phosphorylation ([1]; CRT-MG cells): considerably suppressed H2O2-induced caveolin-1 phosphorylation in a dose-dependent manner; also recorded: completely abrogates H2O2-induced caveolin-1 phosphorylation

binding of rGST-CSK to caveolin-1 peptide spots [9]: strong binding
Molecule: spot 2: residues 9–21 of caveolin-1 (spot 2), which included Tyr 14 (Ac-SEGHL[pY]TVPIREQ)
binding of rGST-SHP-2 to caveolin-1 peptide spots [8]: only 1 spot of bound recombinant SHP-2 was detected
